Experimental data taken from PMC11984877, “Carnosic Acid Directly Targets STING C‐Terminal Tail to Improve STING‐Mediated Inflammatory Diseases” (Advanced Science, 2025).

Assays:
[1] = target: T1, STING (stimulator of interferon genes) (Homo sapiens, UniProt Q86WV6); assay: SPR (Biacore T200); also MST (KD […]) and CA-sepharose pull-down competed by free CA; assay type: binding; design: gene STING1; purified soluble human STING protein (TP308418, OriGene)
[2] = target: T1, STING (stimulator of interferon genes); assay: SPR (Biacore T200); also carnosol-sepharose pull-down; assay type: binding; design: gene STING1; purified human STING protein (TP308418, OriGene)

T1 sequence (Q86WV6 whole entry): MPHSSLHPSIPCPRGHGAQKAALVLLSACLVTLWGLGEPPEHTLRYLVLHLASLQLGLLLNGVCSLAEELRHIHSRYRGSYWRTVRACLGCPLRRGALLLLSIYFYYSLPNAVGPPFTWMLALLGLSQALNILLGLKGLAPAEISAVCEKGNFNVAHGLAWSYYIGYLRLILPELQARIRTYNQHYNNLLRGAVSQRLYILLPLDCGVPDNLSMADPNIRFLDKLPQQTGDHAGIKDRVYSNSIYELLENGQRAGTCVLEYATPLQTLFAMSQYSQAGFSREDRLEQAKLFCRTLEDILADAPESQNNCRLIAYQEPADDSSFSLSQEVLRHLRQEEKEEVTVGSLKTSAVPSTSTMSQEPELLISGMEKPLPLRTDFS

Which Kd [1] does the source give for `CC(C)c1cc2c(c(O)c1O)[C@@]1(C(=O)O)CCCC(C)(C)[C@@H]1CC2` [CA, carnosic acid] here?
Its Kd is 3170 nM.

Which Kd [2] does the source give for `CC(C)c1cc2c(c(O)c1O)[C@@]13CCCC(C)(C)[C@@H]1C[C@@H]2OC3=O` [carnosol] here?
Its Kd is 1070 nM.
